Experimental data from paper PMC7255010, “Small-molecule activating SIRT6 elicits therapeutic effects and synergistically promotes anti-tumor activity of vitamin D3 in colorectal cancer” (Theranostics, 2020).

What was measured:
FHC = experiment: Cell proliferation, CCK-8, non-cancerous colon cell line; format: cell-based; details: Homo sapiens, CCK-8, 48 h, Figure S6, mean ± s.e.m. of three experiments
HT29 = experiment: Cell cycle analysis (PI staining, flow cytometry); format: cell-based, human; details: for cell cycle phase distribution, G2/M: 48 h (0 µM: 22.6 ± 6.7); for cell cycle phase distribution, S: 48 h (0 µM: 36.9 ± 4.6); for cell cycle phase distribution, G0/G1: 48 h (0 µM: 40.5 ± 2.6)
Protocol: (§1) Then, cells were collected and fixed with 75% ethanol at 4 °C overnight. The cells were incubated with RNase I (50 μg/mL) in 1× PBS at 37 °C for 30 min and stained with propidium iodide (50 μg/mL) for 15 min. The cells were analyzed by flow cytometry and FACS DIVA software, v6.2 (BD Biosciences). The cell cycle distribution was analyzed using FlowJo 7.6.1 software. The data are presented as the mean ± s.d. of three independent experiments.

HCT116 = experiment: Cell cycle analysis (PI staining, flow cytometry); format: cell-based, human; details: for cell cycle phase distribution, G2/M: 48 h (0 µM: 20.4 ± 4.5); for cell cycle phase distribution, S: 48 h (0 µM: 30.1 ± 4.4); for cell cycle phase distribution, G0/G1: 48 h (0 µM: 49.5 ± 3.5)
Protocol: as §1

SW480 = experiment: Cell cycle analysis (PI staining, flow cytometry); format: cell-based, human; details: for cell cycle phase distribution, G2/M: 48 h (0 µM: 13.9 ± 1.8); for cell cycle phase distribution, S: 48 h (0 µM: 38.3 ± 3.6); for cell cycle phase distribution, G0/G1: 48 h (0 µM: 47.7 ± 1.3)
Protocol: as §1

[1] = tested on: CRC cell lines (HCT116, HT29, SW480); experiment: LDH assay of cytotoxicity in CRC cell lines; format: cell-based; details: 48 h, pharmacological concentrations
Protocol: Cell cytotoxicity was assessed by measuring LDH release from damaged or dead cells using a Cytotoxicity LDH Assay Kit-WST (Dojindo) following the manufacturer's instructions. Briefly, 5 × 10^3 cells per well were plated in 96-well plates. […] The final DMSO concentration in the medium was 0.1%. The amount of LDH leakage from the cells was determined by measuring the absorbance at 490 nm using a microplate reader (Synergy H4 Hybrid Reader, BioTek). The percentage of cytotoxicity was calculated as follows: [(test sample - low control)/ (high control - low control)] × 100, where low control is the absorbance of the culture medium without any added extract, and high control is the absorbance of the culture medium in which the cells were treated with 1% (v/v) Triton X-100 to achieve 100% LDH release. Each data point is presented as the mean ± s.d. of three independent experiments.

SIRT6 = SIRT6 (Homo sapiens, UniProt Q8N6T7); experiment: Histone deacetylase enzyme selectivity assay; format: biochemical; design: endogenous in cells; host or cells: HEK293T; details: SIRT6, selectivity panel
SIRT6, sequence (Q8N6T7 whole entry): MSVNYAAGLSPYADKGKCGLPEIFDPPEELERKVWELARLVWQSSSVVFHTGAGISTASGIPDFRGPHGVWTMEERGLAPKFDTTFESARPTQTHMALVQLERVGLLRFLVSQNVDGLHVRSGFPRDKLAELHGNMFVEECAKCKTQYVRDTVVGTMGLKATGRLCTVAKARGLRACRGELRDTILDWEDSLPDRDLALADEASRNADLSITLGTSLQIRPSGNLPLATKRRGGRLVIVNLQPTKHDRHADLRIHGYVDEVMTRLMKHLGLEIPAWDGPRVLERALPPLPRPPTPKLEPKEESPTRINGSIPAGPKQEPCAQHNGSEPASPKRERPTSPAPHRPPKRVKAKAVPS
Protocol: Then, the reaction was initiated by adding the fluorogenic HDAC acetylated substrate (also adding NAD^+ in the deacetylase assays of sirtuins) at the indicated concentrations at room temperature or 37 °C for the indicated durations. After incubation, the reaction was stopped with an equal volume of buffer containing 1 mL of HDAC developer (peptidase activity, BPS Bioscience); 20 µM trichostatin was also included for the termination in the deacetylase assays of HDAC1-11. After the indicated time, fluorescence intensity was measured using a microplate reader (Envision, Perkin Elmer) at excitation and emission wavelengths of 355 nm and 460 nm, respectively. We also developed deacetylase assays for SIRT5 and SIRT7, which were not available at CEREP. For SIRT5 deacetylation assay, HEK293T cells were transiently transfected with empty vector or pcDNA3.1-SIRT5-HA (10 μg/10 cm plate) using Neofect™ DNA transfection reagent. 48 h after transfection, cells were lysed in ice-cold NP-40 buffer (50 mM Tris-HCl [pH 8.0], 150 mM NaCl, 1% NP-40, and protease inhibitor cocktail) with rotation at 4 °C for 30 min. A particle-free supernatant solution was obtained by centrifugation at 13,600 × g for 15 min at 4 °C. […] The data points at various concentrations were expressed as percent inhibition or activation effects of the control activity. […]

[2] = tested on: HCT116, HT29, and LOVO cells; experiment: Combination drug treatment, CCK-8, Chou-Talalay combination index; format: cell-based, human; details: MDL-811 (5 to 10 μM) plus 1,25(OH)2D3 (1 to 10 μM), 48 h, three CRC cell lines; CI < 1 = synergism
Protocol: 1,25(OH)2D3 was purchased from TargetMol. For cell proliferation assays, 1,25(OH)2D3 was dissolved in DMSO, stored at -20 °C and protected from light. The maximum final DMSO concentration used in all treatment conditions was 0.25%. […] Then, cell proliferation assays were performed using the CCK-8 method. Combination effects were analyzed by the Chou-Talalay combination index (CI) method. The CI values and the fraction of cells affected values were generated using CompuSyn Version 1.0 software. CI values of < 1, = 1, and > 1 indicate synergism, additivity, and antagonism between the drugs, respectively.

Structure (SMILES): Cc1cc(F)c(Br)cc1NS(=O)(=O)c1ccc(NS(=O)(=O)c2cc(Cl)cc(Cl)c2)cc1CN1CCOC[C@H]1C [MDL-811]
- IC50 (FHC): 24.4 ± 0.5 µM
- cell cycle phase distribution, G2/M (HT29; HT29, 5 µM): 20.2 ± 4.2
- cell cycle phase distribution, S (HT29; HT29, 5 µM): 25.3 ± 4.5
- cell cycle phase distribution, G0/G1 (HT29; HT29, 5 µM): 54.5 ± 4.1
- cell cycle phase distribution, G2/M (HT29; HT29, 10 µM): 20.5 ± 3.7
- cell cycle phase distribution, S (HT29; HT29, 10 µM): 19.6 ± 2.3
- cell cycle phase distribution, G0/G1 (HT29; HT29, 10 µM): 59.9 ± 2.7
- cell cycle phase distribution, G2/M (HCT116; HCT116, 5 µM): 17.9 ± 4.0
- cell cycle phase distribution, S (HCT116; HCT116, 5 µM): 19.0 ± 2.3
- cell cycle phase distribution, G0/G1 (HCT116; HCT116, 5 µM): 63.2 ± 2.1
- cell cycle phase distribution, G2/M (HCT116; HCT116, 10 µM): 14.1 ± 3.8
- cell cycle phase distribution, S (HCT116; HCT116, 10 µM): 19.0 ± 4.3
- cell cycle phase distribution, G0/G1 (HCT116; HCT116, 10 µM): 66.9 ± 1.4
- cell cycle phase distribution, G2/M (SW480; SW480, 5 µM): 10.8 ± 4.4
- cell cycle phase distribution, S (SW480; SW480, 5 µM): 26.3 ± 5.1
- cell cycle phase distribution, G0/G1 (SW480; SW480, 5 µM): 62.9 ± 6.0
- cell cycle phase distribution, G2/M (SW480; SW480, 10 µM): 11.9 ± 6.4
- cell cycle phase distribution, S (SW480; SW480, 10 µM): 18.1 ± 4.9
- cell cycle phase distribution, G0/G1 (SW480; SW480, 10 µM): 70.0 ± 3.8
- cytotoxicity (LDH release) [1]: minimal cytotoxic effect
- Effect (SIRT6): Activation
- CI values (Chou-Talalay) [2]: < 1
